The test system of the test is nNOS. The test can be described thus: In vitro NOS inhibition, hemoglobin capture assay. Format: biochemical. The note with it: ratio of Ki values, eNOS over nNOS.

These results are taken from paper PMC3103786 (Journal of medicinal chemistry, 2009).

Turning to `Nc1cccc(CC2CNCC2NCCCO)n1` (racemic) [compound 4, (±)-3-{cis-4'-[(6“-aminopyridin-2”-yl)methyl]pyrrolidin-3'-ylamino}propan-1-ol], the eNOS/nNOS is 39.
Turning to `Cc1cc(N)nc(CC2CNCC2NCCNCc2ccc(Cl)cc2)c1` (racemic) [compound 6, (±)-N^1-{cis-4'-[(6“-amino-4”-methylpyridin-2“-yl)methyl]pyrrolidin-3'-yl}-N^2-(4'-chlorobenzyl)ethane-1,2-diamine], the eNOS/nNOS turned out to be 1002.
Then `Cc1cc(N)nc(CC2CNCC2NCCNCc2cccc(Cl)c2)c1` (racemic) [compound 7, (±)-N^1-{trans-4'-[(6“-amino-4”-methylpyridin-2”-yl)methyl]pyrrolidin-3'-yl}-N^2-(3'-chlorobenzyl)ethane-1,2-diamine], with 381.
